We go through 1 compound from publication PMC9882606, “Rationally designed inhibitors of the Musashi protein-RNA interaction by hotspot mimicry” (Research Square, 2023).

The target in one series is T1, hnRNP A1 RRM1 domain (Homo sapiens, UniProt P09651).
T1 construct: we expressed and purified hnRNP A1’s RRM1 domain; made in house
As to the kind of experiment: FP competition assay with the same fluorescently-labeled RNA. Format: binding.

In series [1] the test system is PC9 cells. As to the kind of experiment: Clonogenic assay, PC9. The conditions noted are these: PC9, 10 μM, 7 days. Format: cell-based, human. As to the method: (§1) Figure 7: Cellular characterization of MSI2 inhibition by R12–8–44–3. (A) Quantification of mRNA immunoprecipitation (RIP) results. Cells were treated with 10 μM of the indicated compounds for 8 hours. After immunoprecipitation with anti-MSI2, mRNA targets were quantified. The amount of each target mRNA in the pulldown was calculated relative to the input, and results from all targets were normalized to PTP4A1. Treating cells with R12–8–44–3 disrupted the interaction with all four cognate mRNAs (PTP4A, SMAD3, EGFR, and MSI2). Data are presented as the average ± S.E.M. from at least 3 independent replicates. […] Cells were treated with indicated compounds at two concentrations (5 μM and 20 μM) for 48 hours, then protein levels of relevant MSI2 targets were determined (EGFR, SMAD3, and MSI2). One representative image is shown; quantification is presented as the average ± S.E.M. from at least 3 independent replicates, normalized first to beta-actin and then to DMSO-treated cells. (C) Cell viability dose-response quantified by CellTiter-Blue after 3 days (left) and cell proliferation with 10μM of compounds quantified by clonogenic assay after 7 days (right). […] (D) Cell viability quantified by clonogenic assay of PC9 cell line after 7-day treatment with 2 nM osimertinib (osi alone), osimertinib with 10 μM R12–8–44–3, or osimertinib with 10 μM R12-neg. […]

Another series relates to K562 cells. As to the kind of experiment: Cell growth/survival, K562. Format: cell-based, human. The source says: It is difficult to determine precisely why Ro and R12–8–44–3 have such dramatically different behavior in this assay: one possibility is that Ro, a repurposed compound originally reported for activity unrelated to MSI2, may exert its cytotoxic effect in these cell lines through molecular targets unrelated to MSI2.

Series [2] has as its system PC9 cells. As to the kind of experiment: Clonogenic assay, combination with osimertinib, PC9. Format: cell-based, human. To be noted: PC9, 7 days, 2 nM osimertinib with 10 μM compound. The protocol: as §1
In a further series the target is MSI2 (Homo sapiens, UniProt Q96DH6). As to the kind of experiment: Cellular thermal shift assay (CETSA) in PC9 cells. Further details: endogenous in cells; host or cells: PC9. The conditions noted are these: PC9, 3 hours, 20 μM or 40 μM, heated to 49 °C. The format is cell-based. The source says:
To explore the effect of these MSI2 inhibitors in a cancer-relevant cellular context, we selected two MSI2-dependent cancer cell lines: non-small cell lung cancer cell line PC9 and leukemia cell line K562 [73, 98–101]. Upon treatment of PC9 cells with Ro, R12–8–44–3, or negative control R12-neg, we found at multiple time points that cellular MSI2 protein levels were unchanged (Figure 6a). To confirm target engagement, we therefore adapted the cellular thermal shift assay (CETSA). […]
Figure 6: Direct cellular engagement of MSI2 interaction by R12–44–3. […] MSI2 protein abundance was then quantified and normalized to untreated sample. One representative image is shown; quantification is presented as the average ± S.E.M. from 3 independent replicates. […] Cells were briefly incubated at temperatures between 40 °C to 67 °C, then centrifuged and the amount of MSI2 remaining in the soluble fraction was quantified by Western blotting. […] One representative image is shown; quantification is presented as the average ± S.E.M. from 3 independent replicates, normalized first to beta-actin and then to DMSO control. […] One representative image is shown; quantification is presented as the average ± S.E.M. from 3 independent replicates, normalized first to beta-actin and then to DMSO control. […]

T1 sequence (P09651 14-97 limits assumed): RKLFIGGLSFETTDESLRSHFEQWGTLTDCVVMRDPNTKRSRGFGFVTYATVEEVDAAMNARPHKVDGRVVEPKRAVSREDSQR
MSI2, sequence (Q96DH6 whole entry): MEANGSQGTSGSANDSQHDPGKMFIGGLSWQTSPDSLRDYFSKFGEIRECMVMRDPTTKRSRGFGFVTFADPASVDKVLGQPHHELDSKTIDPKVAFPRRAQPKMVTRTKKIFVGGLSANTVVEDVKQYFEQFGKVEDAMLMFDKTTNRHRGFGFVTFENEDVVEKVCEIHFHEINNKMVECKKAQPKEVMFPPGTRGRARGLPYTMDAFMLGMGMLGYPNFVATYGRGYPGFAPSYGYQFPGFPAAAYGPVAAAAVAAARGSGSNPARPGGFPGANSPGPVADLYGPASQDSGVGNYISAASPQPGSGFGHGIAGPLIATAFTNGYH

With `Cc1cc(C(=O)OCc2nc(N)c3c(C)c(C)sc3n2)c(N)cc1F` [R12–8–44–3], the “inhibition of hnRNP A1 RNA binding” value at hnRNP A1 RRM1 domain was “does not inhibit”. Further, the “cell proliferation (clonogenic assay)” value in the series with PC9 cells [1] is recorded as “no effect on cell growth/survival”. In addition, the cell growth/survival entry in the series on K562 cells is recorded as “results in alignment with our observations from PC9 cells”. For the same compound, the “clonogenic assay in combination with osimertinib” value in the series on PC9 cells [2] is on record as “robust combined effect with osimertinib”. For the same compound, the “soluble MSI2 after heating (CETSA)” value at MSI2 is listed as “confers protection against thermal-induced aggregation”.
